The record followed here is patent US8017656B2, “Organic sulfur compounds and use thereof” (Sumitomo Chemical Company, Limited, priority 2005, dated 2011).

Where two headings read alike, the source gives them in different places. Where only a bound is given, the exact number is not on record here.

Holding throughout (format): in vivo
For assay [1], the system named is Culex pipiens pallens. Nature of the assay: Test Example 4: mosquito larvae test in treated water. To be noted: 24 h, read-out: rate of dead pests. How it is done: 0.7 ml of above test solution was added to 100 ml of ion exchanged water (active ingredient concentration: 3.5 ppm). Twenty last-instar larvae of Culex pipiens pallens were set free in the solution. After one day, the number of surviving and dead Culex pipiens pallens was examined and the rate of dead pests was calculated.

The test system of assay [2] is Blattella germanica. Kind of assay: Test Example 3: filter paper/sucrose bait test against German cockroach imagoes. To be noted: Blattella germanica, 144 h, read-out: rate of dead pests. How it is done:
On the bottom of a polyethylene cup having a diameter of 5.5 cm, a filter paper having the same diameter was laid, and 0.7 ml of the above test solution was added dropwise on the filter paper, followed by putting 30 mg of sucrose on it uniformly as a bait. Two male Blattella germanica imagoes were set free in the polyethylene cup and covered it with a lid. After 6 days, the number of surviving and dead Blattella germanica was examined and the rate of dead pests was calculated.

In assay [3] the test system is Musca domestica. Nature of the assay: Test Example 2: filter paper/sucrose bait test against housefly imagoes. The settings on record: read-out: rate of dead pests. How it is done: On the bottom of a polyethylene cup having a diameter of 5.5 cm, a filter paper having the same diameter was laid, and 0.7 ml of the above test solution was added dropwise on the filter paper, followed by putting 30 mg of sucrose on it uniformly as a bait. Ten female Musca domestica imagoes were set free in the polyethylene cup and covered it with a lid. After 24 hours, the number of surviving and dead Musca domestica was examined and the rate of dead pests was calculated.

Where [4] appears, read: active ingredient concentration 3.5 ppm in water, twenty last-instar larvae, after one day.
Setting [5] is: 500 ppm test solution, 0.7 ml on filter paper with 30 mg sucrose, two male imagoes, after 6 days.
[6] abbreviates: 500 ppm test solution, 0.7 ml on filter paper with 30 mg sucrose, ten female imagoes, after 24 hours.

As to `NC(=O)C(Cl)(CCCC(F)(F)F)S(=O)(=O)CCC(F)(F)F` (stereo not drawn) [(80)], in assay [1] (setting [4]), the pest or weed control at 3.5 ppm is at least 90%. In addition, the pest or weed control at 500 ppm in assay [2] (setting [5]) is 100%; in assay [3] (setting [6]), at least 70%.

For `CC(C#N)(CCC(F)(F)C(F)(F)F)S(=O)(=O)CCC(F)(F)F` (stereo not drawn) [(11)], in assay [1] (setting [4]), the pest or weed control at 3.5 ppm was at least 90%. The pest or weed control at 500 ppm in assay [2] (setting [5]) was 100%; in assay [3] (setting [6]), at least 70%.

Turning to `CC(CCC(F)(F)C(F)(F)C(F)(F)F)(C(N)=O)S(=O)(=O)CCC(F)(F)C(F)(F)F` (stereo not drawn) [(56)], in assay [1], the pest or weed control at 3.5 ppm is at least 90%. Besides, the figures for the pest or weed control at 500 ppm in assay [2] and in assay [3] (24 h) were 100% and at least 70%, respectively.

On to `N#CC(CCC(F)(F)C(F)(F)C(F)(F)F)S(=O)(=O)CCC(F)(F)F` (stereo not drawn) [(5)], for which the pest or weed control at 3.5 ppm in assay [1] was at least 90%. Further, the pest or weed control at 500 ppm in assay [2] is 100%; in assay [3] (24 h) it was at least 70%.

Turning to `N#CC(CC(F)(F)C(F)(F)F)S(=O)(=O)CCC(F)(F)F` (stereo not drawn) [(2)], the pest or weed control at 3.5 ppm in assay [1] (setting [4]) is at least 90%. For the same compound, the results for the pest or weed control at 500 ppm in assay [2] (setting [5]) and in assay [3] (setting [6]) were 100% and at least 70%, respectively.

For `NC(=O)C(CCC(F)(F)C(F)(F)F)S(=O)(=O)CCC(F)(F)F` (stereo not drawn) [(31)], the pest or weed control at 3.5 ppm in assay [1] (setting [4]) was at least 90%. The values for the pest or weed control at 500 ppm in assay [2] (setting [5]) and in assay [3] (setting [6]) were 100% and at least 70%, respectively.

For `COC(=O)C(Cl)(CCC(F)(F)C(F)(F)F)S(=O)(=O)CCC(F)(F)C(F)(F)F` (stereo not drawn) [(88)], in assay [1] (setting [4]), the pest or weed control at 3.5 ppm is at least 90%. Also, the pest or weed control at 500 ppm in assay [2] (setting [5]) is 100%; in assay [3] (setting [6]), at least 70%.

`NC(=O)C(F)(CCC(F)(F)C(F)(F)F)S(=O)(=O)CCC(F)(F)C(F)(F)C(F)(F)F` (stereo not drawn) [(67)]: the pest or weed control at 3.5 ppm in assay [1] is at least 90%. Further, the pest or weed control at 500 ppm in assay [2] is 100%; in assay [3] (24 h), at least 70%.

`CC(C#N)(CCC(F)(F)C(F)(F)F)S(=O)(=O)CCC(F)(F)C(F)(F)F` (stereo not drawn) [(13)]: in assay [1] (setting [4]), the pest or weed control at 3.5 ppm was at least 90%. Moreover, the figures for the pest or weed control at 500 ppm in assay [2] (setting [5]) and in assay [3] (setting [6]) were 100% and at least 70%, respectively.

In the case of `COC(=O)C(Cl)(CCC(F)(F)F)S(=O)(=O)CCC(F)(F)C(F)(F)F` (stereo not drawn) [(93)], the pest or weed control at 3.5 ppm in assay [1] (setting [4]) was at least 90%. The pest or weed control at 500 ppm in assay [2] (setting [5]) is 100%; in assay [3] (setting [6]), at least 70%.

For `COC(=O)C(CCC(F)(F)C(F)(F)F)[S+]([O-])CCC(F)(F)F` (stereo not drawn) [(63)], in assay [1] (setting [4]), the pest or weed control at 3.5 ppm was at least 90%. Also, the pest or weed control at 500 ppm in assay [2] (setting [5]) is 100%; in assay [3] (setting [6]), at least 70%.

`CC(C)C(C#N)(CCC(F)(F)C(F)(F)F)S(=O)(=O)CCC(F)(F)F` (stereo not drawn) [(17)]: in assay [1] (setting [4]), the pest or weed control at 3.5 ppm was at least 90%. Moreover, the pest or weed control at 500 ppm was 100% in assay [2] (setting [5]) and at least 70% in assay [3] (setting [6]).

For `N#CC(CCC(F)(F)C(F)(F)F)S(=O)(=O)CCC(F)(F)F` (stereo not drawn) [(3)], the pest or weed control at 3.5 ppm in assay [1] (setting [4]) was at least 90%. The pest or weed control at 500 ppm in assay [2] (setting [5]) was 100%; in assay [3] (setting [6]) it was at least 70%.

Consider `COC(=O)C(Cl)(CCCC(F)(F)F)S(=O)(=O)CCC(F)(F)F` (stereo not drawn) [(79)], for which the pest or weed control at 3.5 ppm in assay [1] (setting [4]) is at least 90%. For the same compound, the pest or weed control at 500 ppm in assay [2] (setting [5]) was 100%; in assay [3] (setting [6]) it was at least 70%.

`COC(=O)C(Cl)(CCC(F)(F)C(F)(F)C(F)(F)C(F)(F)F)S(=O)(=O)CCC(F)(F)F` (stereo not drawn) [(86)]: the pest or weed control at 3.5 ppm in assay [1] was at least 90%. Besides, the pest or weed control at 500 ppm in assay [2] was 100%; in assay [3] (24 h) it was at least 70%.

Consider `COC(=O)C(F)(CCC(F)(F)C(F)(F)F)S(=O)(=O)CCC(F)(F)F` (stereo not drawn) [(29)], for which the pest or weed control at 3.5 ppm in assay [1] (setting [4]) is at least 90%. Besides, the pest or weed control at 500 ppm is 100% in assay [2] (setting [5]) and at least 70% in assay [3] (setting [6]).

On to `NC(=O)C(CCC(F)(F)C(F)(F)F)S(=O)(=O)CCC(F)(F)C(F)(F)F` (stereo not drawn) [(60)], for which the pest or weed control at 3.5 ppm in assay [1] (setting [4]) is at least 90%. In addition, the pest or weed control at 500 ppm in assay [2] (setting [5]) is 100%; in assay [3] (setting [6]), at least 70%.

Take `N#CC(CCC(F)(F)F)S(=O)(=O)CCC(F)(F)C(F)(F)F` (stereo not drawn) [(53)]: in assay [1] (setting [4]), the pest or weed control at 3.5 ppm is at least 90%. Moreover, the pest or weed control at 500 ppm is 100% in assay [2] (setting [5]) and at least 70% in assay [3] (setting [6]).

For the compound `CNC(=O)C(C)(CCC(F)(F)C(F)(F)F)S(=O)(=O)CCC(F)(F)F` (stereo not drawn) [(35)], the pest or weed control at 3.5 ppm in assay [1] (setting [4]) was at least 90%. Besides, the values for the pest or weed control at 500 ppm in assay [2] (setting [5]) and in assay [3] (setting [6]) were 100% and at least 70%, respectively.

Regarding `COC(=O)C(C)(CCC(F)(F)C(F)(F)F)S(=O)(=O)CCC(F)(F)F` (stereo not drawn) [(26)], the pest or weed control at 3.5 ppm in assay [1] (setting [4]) was at least 90%. Also, the pest or weed control at 500 ppm was 100% in assay [2] (setting [5]) and at least 70% in assay [3] (setting [6]).

For the compound `CC(C)NC(=O)C(C)(CCC(F)(F)C(F)(F)F)S(=O)(=O)CCC(F)(F)F` (stereo not drawn) [(41)], the pest or weed control at 3.5 ppm in assay [1] (setting [4]) is at least 90%. Further, the pest or weed control at 500 ppm is 100% in assay [2] (setting [5]) and at least 70% in assay [3] (setting [6]).

Consider `CCCC(C#N)(CCC(F)(F)C(F)(F)F)S(=O)(=O)CCC(F)(F)F` (stereo not drawn) [(16)], for which, in assay [1] (setting [4]), the pest or weed control at 3.5 ppm was at least 90%. The pest or weed control at 500 ppm is 100% in assay [2] (setting [5]) and at least 70% in assay [3] (setting [6]).

With `N#CC(CCC(F)(F)C(F)(F)F)S(=O)(=O)CCC(F)(F)C(F)(F)C(F)(F)F` (stereo not drawn) [(10)], in assay [1], the pest or weed control at 3.5 ppm was at least 90%. For the same compound, the values for the pest or weed control at 500 ppm in assay [2] and in assay [3] (24 h) were 100% and at least 70%, respectively.

With `COC(=O)C(CCC(F)(F)C(F)(F)F)S(=O)(=O)CCC(F)(F)F` (stereo not drawn) [(23)], the pest or weed control at 3.5 ppm in assay [1] (setting [4]) is at least 90%. Also, the pest or weed control at 500 ppm in assay [2] (setting [5]) is 100%; in assay [3] (setting [6]), at least 70%.

With `NC(=O)C(Cl)(CCCCC(F)(F)F)S(=O)(=O)CCC(F)(F)F` (stereo not drawn) [(100)], the pest or weed control at 3.5 ppm in assay [1] (setting [4]) was at least 90%. For the same compound, the pest or weed control at 500 ppm in assay [2] (setting [5]) was 100%; in assay [3] (setting [6]), at least 70%.

`COC(=O)C(C)(CCC(F)(F)C(F)(F)F)[S+]([O-])CCC(F)(F)F` (stereo not drawn) [(71)]: the pest or weed control at 3.5 ppm in assay [1] (setting [4]) was at least 90%. Also, the pest or weed control at 500 ppm in assay [2] (setting [5]) was 100%; in assay [3] (setting [6]), at least 70%.

Turning to `COC(=O)C(Cl)(CCC(F)(F)C(F)(F)C(F)(F)F)S(=O)(=O)CCC(F)(F)C(F)(F)F` (stereo not drawn) [(96)], the pest or weed control at 3.5 ppm in assay [1] was at least 90%. Moreover, the pest or weed control at 500 ppm in assay [2] is 100%; in assay [3] (24 h), at least 70%.

Turning to `CN(C)C(=O)C(CCC(F)(F)C(F)(F)F)S(=O)(=O)CCC(F)(F)F` (stereo not drawn) [(33)], the pest or weed control at 3.5 ppm in assay [1] (setting [4]) was at least 90%. Also, the pest or weed control at 500 ppm in assay [2] (setting [5]) was 100%; in assay [3] (setting [6]), at least 70%.

Consider `COC(=O)C(C)(CCC(F)(F)C(F)(F)F)SCCC(F)(F)F` (stereo not drawn) [(68)], for which the pest or weed control at 3.5 ppm in assay [1] (setting [4]) was at least 90%. Further, the pest or weed control at 500 ppm was 100% in assay [2] (setting [5]) and at least 70% in assay [3] (setting [6]).

For the compound `CC(CCC(F)(F)C(F)(F)F)(C(N)=O)S(=O)(=O)CCC(F)(F)F` (stereo not drawn) [(34)], the pest or weed control at 3.5 ppm in assay [1] (setting [4]) was at least 90%. In addition, the values for the pest or weed control at 500 ppm in assay [2] (setting [5]) and in assay [3] (setting [6]) were 100% and at least 70%, respectively.

For `CCC(CCC(F)(F)C(F)(F)F)(C(N)=O)S(=O)(=O)CCC(F)(F)F` (stereo not drawn) [(38)], the pest or weed control at 3.5 ppm in assay [1] (setting [4]) is at least 90%. Further, the pest or weed control at 500 ppm was 100% in assay [2] (setting [5]) and at least 70% in assay [3] (setting [6]).
